What all share (format): biochemical
Assay [1] deals with T1, Human MMP9 (Homo sapiens, UniProt P14780).
T1 construct: made in house
Nature of the assay: Isolated enzyme assay, MMP9. The text has this: (§1) A protocol for testing against other matrix metalloproteinases, including MMP9, using expressed and purified pro MMP is described, for instance, by C. Graham Knight et al., (1992) FEBS Lett. 296(3):263-266.

Assay [2] concerns the target T2, Human MMP19 (Homo sapiens, UniProt Q99542).
T2 construct: made in house
T2 sequence (Q99542 98-508): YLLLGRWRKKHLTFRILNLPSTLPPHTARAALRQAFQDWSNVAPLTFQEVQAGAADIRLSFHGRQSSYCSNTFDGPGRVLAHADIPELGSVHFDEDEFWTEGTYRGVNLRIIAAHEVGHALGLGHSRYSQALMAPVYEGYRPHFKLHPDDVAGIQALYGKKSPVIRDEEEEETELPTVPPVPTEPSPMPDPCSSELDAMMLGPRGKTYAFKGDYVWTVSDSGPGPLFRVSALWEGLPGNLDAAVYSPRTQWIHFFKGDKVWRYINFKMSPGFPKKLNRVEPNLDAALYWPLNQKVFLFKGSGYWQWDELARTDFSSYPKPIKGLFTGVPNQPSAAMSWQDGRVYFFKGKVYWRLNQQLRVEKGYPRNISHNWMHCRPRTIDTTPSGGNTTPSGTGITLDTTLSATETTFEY
Nature of the assay: Isolated enzyme assay, MMP19.
From the text: as §1

Assay [3] concerns the target T3, Human MMP2 (Homo sapiens, UniProt P08253).
T3 construct: made in house
T3 sequence (P08253 110-660): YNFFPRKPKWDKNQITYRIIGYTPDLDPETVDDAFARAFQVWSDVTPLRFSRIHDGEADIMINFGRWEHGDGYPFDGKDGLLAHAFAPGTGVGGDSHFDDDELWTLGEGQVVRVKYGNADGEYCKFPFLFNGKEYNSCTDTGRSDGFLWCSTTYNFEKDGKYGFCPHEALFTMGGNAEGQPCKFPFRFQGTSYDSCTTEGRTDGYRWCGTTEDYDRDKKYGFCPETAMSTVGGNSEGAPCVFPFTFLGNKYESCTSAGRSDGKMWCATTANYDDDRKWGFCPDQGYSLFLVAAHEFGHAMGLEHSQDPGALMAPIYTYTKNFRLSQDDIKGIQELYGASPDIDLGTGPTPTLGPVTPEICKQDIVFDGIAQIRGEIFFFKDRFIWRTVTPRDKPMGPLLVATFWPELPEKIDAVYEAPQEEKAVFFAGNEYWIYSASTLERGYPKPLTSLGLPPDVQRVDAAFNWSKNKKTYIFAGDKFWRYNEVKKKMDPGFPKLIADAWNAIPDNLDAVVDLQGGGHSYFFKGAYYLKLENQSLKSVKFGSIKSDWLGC
Briefly: Isolated enzyme assay, MMP2.
From the text: as §1

In assay [4] the target is T4, Human MMP12 (Homo sapiens, UniProt P39900).
T4 construct: Recombinant human MMP12 catalytic domain may be expressed and purified as described by Parkar A. A. et al; made in house
Briefly: Isolated enzyme assay, MMP12 catalytic domain, fluorogenic substrate. Particulars: recombinant human MMP12 catalytic domain. As to the method: Recombinant human MMP12 catalytic domain may be expressed and purified as described by Parkar A. A. et al, (2000), Protein Expression and Purification, 20:152. The purified enzyme can be used to monitor inhibitors of activity as follows: MMP12 (50 ng/ml final concentration) is incubated for 60 minutes at room temperature with the synthetic substrate Mac-Pro-Cha-Gly-Nva-His-Ala-Dpa-NH2 in assay buffer (0.1M “Tris-HCl” (trade mark) buffer, pH 7.3 containing 0.1M NaCl, 20 mM CaCl2, 0.020 mM ZnCl and 0.05% (w/v) “Brij 35” (trade mark) detergent) in the presence (5 concentrations) or absence of inhibitors. Activity is determined by measuring the fluorescence at λex 320 nm and λem 405 nm. Percent inhibition is calculated as follows: % Inhibition is equal to the […].

In assay [5] the target is T5, Human MMP14 (Homo sapiens, UniProt P50281).
T5 construct: made in house
Nature of the assay: Isolated enzyme assay, MMP14.
From the text: as §1

Assay [6] concerns the target T6, Human MMP8 (Homo sapiens, UniProt P22894).
T6 construct: made in house
Nature of the assay: Isolated enzyme assay, MMP8.
From the text: as §1

For orientation: IC50 means the concentration that inhibits the measured activity by half.

T4 sequence (P39900 106-263 limits assumed): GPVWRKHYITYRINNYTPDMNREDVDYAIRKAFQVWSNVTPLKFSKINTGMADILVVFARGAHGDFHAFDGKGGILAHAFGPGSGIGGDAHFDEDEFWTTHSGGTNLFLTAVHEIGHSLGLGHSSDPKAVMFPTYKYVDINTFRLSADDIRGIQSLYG
T6 sequence (P22894 101-467): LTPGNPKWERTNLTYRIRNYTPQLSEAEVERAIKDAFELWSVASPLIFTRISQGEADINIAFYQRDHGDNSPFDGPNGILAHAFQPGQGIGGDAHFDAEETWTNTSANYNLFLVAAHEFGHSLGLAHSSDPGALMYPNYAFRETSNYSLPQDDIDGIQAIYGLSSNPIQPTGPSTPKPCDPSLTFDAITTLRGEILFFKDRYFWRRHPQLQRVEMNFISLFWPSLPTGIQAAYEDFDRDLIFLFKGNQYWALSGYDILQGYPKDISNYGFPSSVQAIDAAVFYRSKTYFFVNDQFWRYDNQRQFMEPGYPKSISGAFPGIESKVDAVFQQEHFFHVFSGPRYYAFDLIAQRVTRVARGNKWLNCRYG
T1 sequence (P14780 94-707): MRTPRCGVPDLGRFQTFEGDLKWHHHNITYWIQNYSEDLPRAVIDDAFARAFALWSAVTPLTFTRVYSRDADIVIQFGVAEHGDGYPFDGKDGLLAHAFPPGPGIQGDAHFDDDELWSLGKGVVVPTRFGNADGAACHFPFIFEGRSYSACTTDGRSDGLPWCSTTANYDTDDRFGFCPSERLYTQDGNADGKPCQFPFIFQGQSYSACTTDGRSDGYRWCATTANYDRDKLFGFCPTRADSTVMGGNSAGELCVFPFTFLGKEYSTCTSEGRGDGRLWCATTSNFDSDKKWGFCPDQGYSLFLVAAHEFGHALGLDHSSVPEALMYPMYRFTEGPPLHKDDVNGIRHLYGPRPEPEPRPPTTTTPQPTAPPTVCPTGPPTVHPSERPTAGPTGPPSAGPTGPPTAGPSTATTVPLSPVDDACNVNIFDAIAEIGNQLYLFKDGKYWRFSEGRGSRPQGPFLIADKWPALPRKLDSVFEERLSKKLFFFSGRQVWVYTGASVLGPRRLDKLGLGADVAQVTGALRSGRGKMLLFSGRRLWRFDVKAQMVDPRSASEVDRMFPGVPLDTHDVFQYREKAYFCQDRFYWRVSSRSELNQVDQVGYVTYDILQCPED

As for `O=c1[nH]nc(CS(=O)(=O)N2CC=C(C#Cc3cnc(C(F)(F)F)nc3)CC2)[nH]1` [Example 6, 5-({[4-{[2-(Trifluoromethyl)pyrimidin-5-yl]ethynyl}-3,6-dihydropyridin-1(2H)-yl]sulfonyl}methyl)-2,4-dihydro-3H-1,2,4-triazol-3-one], the IC50 in assay [1] was 0.0057 µM; in assay [2], 4.3 µM; in assay [3] it was 0.263 µM; in assay [4] it was 0.0024 µM; in assay [5], 6.85 µM; in assay [6] it was 0.284 µM.

In the case of `O=c1[nH]nc(CCS(=O)(=O)N2CCC(Oc3ccc(Cl)cn3)CC2)[nH]1` [Example 2, 5-[2-({4-[(5-Chloropyridin-2-yl)oxy]piperidin-1-yl}sulfonyl)ethyl]-2,4-dihydro-3H-1,2,4-triazol-3-one], the IC50 worked out at 0.318 µM in assay [1]; 1.01 µM in assay [3]; 0.065 µM in assay [4]; 6.66 µM in assay [5]; 0.243 µM in assay [6].

In the case of `O=c1[nH]nc(CS(=O)(=O)N2CCN(c3ccc(Cl)cc3)CC2)[nH]1` [Example 4, 5-({[4-(4-Chlorophenyl)piperazin-1-yl]sulfonyl}methyl)-2,4-dihydro-3H-1,2,4-triazol-3-one], the IC50 came to 0.414 µM in assay [1]; 0.064 µM in assay [2]; 0.142 µM in assay [3]; 0.018 µM in assay [4]; 1.75 µM in assay [5]; 0.031 µM in assay [6].

For the origin of these results see patent US20090299066A1, “TRIAZOLONE DERIVATIVES AS MMP INHIBITORS FOR THE TREATMENT OF ASTHMA AND COPD” (priority 2004, published 2009).
